Biological target: T1, human topoisomerase II α (Homo sapiens, UniProt P11388)
T1 construct: purchased Professor Neil Osheroff (Vanderbilt University, Nashville, Tenn., USA)
Experiment: Topoisomerase II ATPase assay (Malachite Green)
Assay type: biochemical
Conditions: for inhibition at 10 µM: Percent inhibition @10 μM, Malachite Green assay, read-out: TOPO II inh. (inhibition of the TOPO ATPase activity)
Experimental: The inhibition of topoisomerase II is measured as follows:
Purified human topoisomerase II α was purchased from Professor Neil Osheroff (Vanderbilt University—Nashville, Tenn., USA).
The pUC18 (Stratagene) plasmid was introduced into Escherichia coil XL-1 (Stratagene) and purified with the HiSpeed Plasmid Purification kit (Qiagen) according to the manufacturer instructions. The purity of the DNA preparations was evaluated spectrophotometrically (OD260/OD280 ratio) and by agarose gel.
Preparation of the Malachite Green Reagent:
Three volumes of 0.045% malachite green (Sigma, catalog no. M-9636) diluted in water are mixed for 20 min at room temperature with one volume of 4.2% ammonium molybdate (Axon Lab AG, catalog no. A-2246) diluted in 4 N HCl. After mixing, Triton X-100 (Merck, catalog no. 1.12298) is added to a final concentration of 0.01%. The solution is filtered at 0.2 μm and stored at room temperature in the dark.
ATP hydrolysis was monitored by measuring the production of inorganic phosphate released during the catalytic cycle of topoisomerase II α with acidic molybdate and malachite green (Lanzetta,et al., An improved assay for nanomole amounts of inorganic phosphate, Anal Biochem 1979;100:95-7). Briefly, human topoisomerase II α is pre-incubated at 37° C. for 10 min in 90 μl reaction buffer (10 mM Tris.HCl pH 7.9, 175 mM KCl, 1 mM EDTA, 2 mM DTT, 5 mM MgCl2, 2.5% glycerol) in the presence of the indicated amount of pUC18 and DMSO in F96 maxisorp Nunclmmuno plates (Nunc). The reaction is initiated by the addition of 10 μl ATP at the indicated concentrations and is carried out for 30 min at 37° C. under constant agitation. The reaction is stopped by the addition of 200 μl molybdate/malachite green solution and the absorbance is immediately measured at 630 nm. The OD630 value is measured in the absence of protein for each ATP concentration (background) is subtracted from the value obtained in the presence of enzyme. A standard curve with inorganic phosphate is used to determine the amount of inorganic phosphate produced during the reaction and to ensure that the measures are in the linear range of the assay. The kinetic parameters of the enzymes are determined from measurements (at least in duplicate) of the initial rates at different ATP concentrations. The data are analyzed with GraFit (Erithacus Software).
The compounds are tested at 10 μM of concentration to determine their inhibition potential given % of inhibition of the TOPO II ATPase activity.
For the determination of the IC50, the procedure is repeated for different concentrations of test compound selected to cover the range of 0% to 100% inhibition and the concentration at which 50% inhibition of topoisomerase II occurs (IC50) for each compound is determined from concentration-inhibition curves in a conventional manner.

T1 sequence (P11388 whole entry): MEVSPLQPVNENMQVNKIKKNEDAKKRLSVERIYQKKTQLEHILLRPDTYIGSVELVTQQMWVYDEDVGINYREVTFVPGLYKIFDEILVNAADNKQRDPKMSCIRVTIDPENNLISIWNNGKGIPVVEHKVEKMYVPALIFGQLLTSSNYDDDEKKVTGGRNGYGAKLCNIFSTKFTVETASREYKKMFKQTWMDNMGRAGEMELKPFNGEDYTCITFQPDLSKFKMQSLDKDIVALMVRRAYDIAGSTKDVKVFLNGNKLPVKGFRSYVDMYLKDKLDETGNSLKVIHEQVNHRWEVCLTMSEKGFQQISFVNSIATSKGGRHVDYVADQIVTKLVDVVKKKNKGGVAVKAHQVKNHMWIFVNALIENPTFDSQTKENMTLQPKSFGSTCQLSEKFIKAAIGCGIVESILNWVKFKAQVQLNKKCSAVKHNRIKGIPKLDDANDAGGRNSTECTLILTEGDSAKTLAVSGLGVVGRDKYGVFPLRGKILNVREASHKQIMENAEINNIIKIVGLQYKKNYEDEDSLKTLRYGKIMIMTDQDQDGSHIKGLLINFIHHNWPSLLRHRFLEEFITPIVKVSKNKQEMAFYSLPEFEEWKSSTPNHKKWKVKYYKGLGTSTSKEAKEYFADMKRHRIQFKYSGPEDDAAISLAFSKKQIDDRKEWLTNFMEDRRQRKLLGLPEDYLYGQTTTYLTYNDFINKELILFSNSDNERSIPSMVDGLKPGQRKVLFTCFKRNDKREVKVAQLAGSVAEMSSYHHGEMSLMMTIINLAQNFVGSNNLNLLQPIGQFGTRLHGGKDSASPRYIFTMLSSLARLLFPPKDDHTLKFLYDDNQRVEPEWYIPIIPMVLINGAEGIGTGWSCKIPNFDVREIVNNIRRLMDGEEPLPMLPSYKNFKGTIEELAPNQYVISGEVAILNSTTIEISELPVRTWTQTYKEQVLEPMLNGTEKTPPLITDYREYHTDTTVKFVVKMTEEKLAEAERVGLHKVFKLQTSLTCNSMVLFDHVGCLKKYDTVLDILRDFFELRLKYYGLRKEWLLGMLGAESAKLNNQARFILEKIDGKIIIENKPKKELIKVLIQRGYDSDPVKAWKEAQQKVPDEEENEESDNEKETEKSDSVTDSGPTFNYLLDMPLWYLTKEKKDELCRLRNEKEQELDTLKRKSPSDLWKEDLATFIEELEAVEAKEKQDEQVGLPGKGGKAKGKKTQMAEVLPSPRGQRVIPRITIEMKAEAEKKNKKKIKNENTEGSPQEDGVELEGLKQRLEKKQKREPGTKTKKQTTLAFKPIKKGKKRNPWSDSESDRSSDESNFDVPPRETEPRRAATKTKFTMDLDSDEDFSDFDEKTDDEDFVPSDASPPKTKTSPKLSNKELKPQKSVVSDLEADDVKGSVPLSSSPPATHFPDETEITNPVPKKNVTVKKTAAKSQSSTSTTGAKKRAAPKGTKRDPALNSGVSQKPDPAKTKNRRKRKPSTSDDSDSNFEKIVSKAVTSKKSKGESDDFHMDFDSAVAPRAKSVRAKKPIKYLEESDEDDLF

With `c1nc2c(NC3CCCCCC3)nc(Nc3ccc4ncsc4c3)nc2[nH]1` [Example 1, N*2*-Benzothiazol-6-yl-N*6*-cycloheptyl-9H-purine-2,6-diamine] the IC50 was 8.4 µM and the “ATP competitive inhibitor activity” value (OD measured at 630 nm) was “ATP competitive inhibitor”.
For `c1csc(-c2ccc(Nc3nc(NC4CCCCCC4)c4nc[nH]c4n3)cc2)n1` [Example 2, N*6*-Cycloheptyl-N*2*-(4-thiazol-2-yl-phenyl)-9H-purine-2,6-diamine], the inhibition at 10 µM was under 50%.
`c1nc2c(NC3C4CC5CC(C4)CC3C5)nc(Nc3ccc4ncsc4c3)nc2[nH]1` (centres unmarked) [Example 5, N*6*-Adamantan-2-yl-N*2*-benzothiazol-6-yl-9H-purine-2,6-diamine] gave an inhibition at 10 µM of 50 to 65%.
Work on `c1nc2c(NC3CC4CCC3C4)nc(Nc3ccc4ncsc4c3)nc2[nH]1` (centres unmarked) [Example 6, N*2*-Benzothiazol-6-yl-N*6*-bicyclo[2.2.1]hept-2-yl-9H-purine-2,6-diamine] yielded an inhibition at 10 µM of 50 to 65%.
`c1nc2c(NC3CCCCCCC3)nc(Nc3ccc4ncsc4c3)nc2[nH]1` [Example 7, N*2*-Benzothiazol-6-yl-N*6*-cyclooctyl-9H-purine-2,6-diamine] gave an inhibition at 10 µM of 50 to 65%.
Compound `COc1cccc(Nc2nc(Nc3ccc4ncsc4c3)nc3[nH]cnc23)c1` [Example 8, N*2*-Benzothiazol-6-yl-N*6*-(3-methoxy-phenyl)-9H-purine-2,6-diamine] has an inhibition at 10 µM of under 50%.
`OC1CCC(Nc2nc(Nc3ccc4ncsc4c3)nc3[nH]cnc23)CC1` (centres unmarked) [Example 9, 4-[2-(Benzothiazol-6-ylamino)-9H-purin-6-ylamino]-cyclohexanol] showed an inhibition at 10 µM of under 50%.
`c1cnc2ccc(Nc3nc(Nc4ccc5ncccc5c4)c4nc[nH]c4n3)cc2c1` [Example 10, N*2*,N*6*-Di-quinolin-6-yl-9H-purine-2,6-diamine] showed an inhibition at 10 µM of under 50%.
For `c1ccc(C(Nc2nc(Nc3ccc4ncsc4c3)nc3[nH]cnc23)c2ccccc2)cc1` [Example 11, N*6*-Benzhydryl-N*2*-benzothiazol-6-yl-9H-purine-2,6-diamine], the inhibition at 10 µM was under 50%.
`c1ccc(Nc2nc(Nc3ccc4ncccc4c3)nc3[nH]cnc23)cc1` [Example 12, N*6*-Phenyl-N*2*-quinolin-6-yl-9H-purine-2,6-diamine] showed an inhibition at 10 µM of 50 to 65%.
`c1ccc(C(Nc2nc(Nc3ccc4ncccc4c3)nc3[nH]cnc23)c2ccccc2)cc1` [Example 13, N*6*-Benzhydryl-N*2*-quinolin-6-yl-9H-purine-2,6-diamine] gave an inhibition at 10 µM of under 50%.
`CC(C)(C)Nc1nc(Nc2ccc3ccccc3c2)nc2[nH]cnc12` [Example 15, N*6*-tert-Butyl-N*2*-naphthalen-2-yl-9H-purine-2,6-diamine] showed an IC50 of 3.3 µM and an inhibition at 10 µM of 65 to 80%.
Work on `Cc1ccc2cc(Nc3nc(NC(C)(C)C)c4nc[nH]c4n3)ccc2n1` [Example 16, N*6*-tert-Butyl-N*2*-(2-methyl-quinolin-6-yl)-9H-purine-2,6-diamine] yielded an inhibition at 10 µM of 50 to 65%.
With `Cc1nc2cc(Nc3nc(NC(C)(C)C)c4nc[nH]c4n3)ccc2s1` [Example 17, N*6*-tert-Butyl-N*2*-(2-methyl-benzothiazol-5-yl)-9H-purine-2,6-diamine] the inhibition at 10 µM was under 50%.
With `CC(C)(C)Nc1nc(Nc2ccc3nc(C(C)(C)C)sc3c2)nc2[nH]cnc12` [Example 18, N*6*-tert-Butyl-N*2*-(2-tert-butyl-benzothiazol-6-yl)-9H-purine-2,6-diamine] the inhibition at 10 µM was 65 to 80%.
`Cc1nc2ccc(Nc3nc(NC(C)(C)C)c4nc[nH]c4n3)cc2s1` [Example 19, N*6*-tert-Butyl-N*2*-(2-methyl-benzothiazol-6-yl)-9H-purine-2,6-diamine] gave an inhibition at 10 µM of 50 to 65%.
`CC(C)(C)Nc1nc(Nc2ccc(-c3nc4ccccc4s3)cc2)nc2[nH]cnc12` [Example 20, N*2*-(4-Benzothiazol-2-yl-phenyl)-N*6*-tert-butyl-9H-purine-2,6-diamine] was tested, and the inhibition at 10 µM was 65 to 80%.
`COc1ccc2cc(Nc3nc(NC(C)(C)C)c4nc[nH]c4n3)ccc2c1` [Example 21, N*6*-tert-Butyl-N*2*-(6-methoxy-naphthalen-2-yl)-9H-purine-2,6-diamine] showed an inhibition at 10 µM of at least 80%.

— patent US20070249639A1, “Use of 9H-Purine-2,6-Diamine Derivatives in the Treatment of Proliferative Diseases and Novel 9H-Purine-2,6-Diamine Derivatives” (priority 2004, published 2007)
